# From paper PMC12057046, “Elucidation of short linear motif-based interactions of the MIT and rhodanese domains of the ubiquitin-specific protease 8” (Biology Direct, 2025)
# Tests used:
# USP8 Rhod domain = target: T1, USP8 Rhod domain (Homo sapiens, UniProt P40818); assay: Competitive fluorescence polarization (displacement of FITC-TET3_1705 − 1720); type: binding; conditions: FP displacement, 1.5 µM protein, 10 nM FITC-labeled peptide, 50 mM sodium phosphate pH 7.4, 1 mM DTT; mean ± SD, N = 3 technical triplicates (Fig. 3 legend)
# T1 construct: USP8 Rhod (174–317) (UniProt: P40818); GST (cleaved yes); made in house; host or cells: Escherichia coli BL21-Gold (DE3)
# T1 sequence (P40818 174-317): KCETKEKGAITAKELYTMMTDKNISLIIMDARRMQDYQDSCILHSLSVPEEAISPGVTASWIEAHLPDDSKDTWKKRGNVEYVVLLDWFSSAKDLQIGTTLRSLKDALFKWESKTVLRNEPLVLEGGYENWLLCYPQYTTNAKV
# Method: We next evaluated the peptide binding of the Rhod domain by ProP-PD selections. […] (February 2025).
# The peptides were obtained from GeneCust (France) with > 95% purity. Measurement of the direct binding with a constant concentration of FITC-labeled peptides was performed by increasing concentration of the protein. The KD value from the direct binding experiment was obtained by fitting against a quadratic equation (Eq. 4) where “pept” indicates the fixed probe peptide concentrations, X indicates the protein concentration, the constant A is the signal amplitude divided by probe peptide concentration, and B is the plateau value. Eq. 4: [drawing 9]
# Displacement experiments were carried out by increasing concentration of the unlabeled peptides. The data were fitted with a sigmoidal dose-response equation. The results were analysed with GraphPad Prism version 9.2.0.
# USP8 MIT domain [1] = conditions: 187-ELSQRLARLR-196; ref [17], [38]; cited from earlier work
# Source text: To further elucidate the peptide binding determinants of the interactions with USP8 MIT domain we performed a deep mutational scanning (DMS) analysis of two model peptides: one peptide from melanophilin (MLPH481 − 496: […]) which served as a representative of the MIM1-like motif and the EFCAB12 peptide (EFCAB12_1 − 16: […]), which shares some sequence similarity with the DBP116 − 131 peptide. We designed a library of peptides in which each position of the two parental peptides were mutated to all other amino acids (except cysteine) following a classic saturation mutag ...
# USP8 MIT domain [2] = assay: SPOT array alanine scanning, USP8 MIT domain; type: binding, human; conditions: cellulose-bound peptides, GST-tagged MIT 100 µM, 5% skim milk TBST, overnight 4 °C, anti-GST HRP chemiluminescence; normalized to wild type
# Method: SPOT array alanine scanning of peptides was designed, and cellulose-bound peptides were synthesized using Fluorenylmethyloxycarbonyl (Fmoc) solid phase synthesis with a MultiPep synthesizer (INTAVIS Peptide Services, Tübingen, Germany). The membranes of predicted peptides were purchased by JPT Peptide Technologies (Berlin, Germany). The membranes were incubated with blocking buffer containing 5% skim milk in TBST (50 mM Tris, 150 mM NaCl pH 7.5, 0.05% Tween-20) for two hours at room temperature. The blocked membranes were incubated with GST-tagged proteins (100 µM for MIT domain and 150 µM for the Rhodanese domain) in blocking buffer overnight at 4 °C. After rinsed with TBST the membranes were incubated with HRP-conjugated anti-GST antibody (Cytiva, RPN1236; 1:3000 dilution) in blocking buffer for 1 h at 4 °C and subsequently rinsed with TBST to remove any excess antibody. The ECL reagent (Clarity Max Western ECL substrate, 1705062, BioRad) was used for chemiluminescence read-out with the ChemiDoc Imaging system (BioRad). The images were analysed with Fiji (ImageJ2 version 2.9.0). SLiMSearch4 was used to design the peptide arrays with known interactors predicted to contain the motifs. The background signal intensity was subtracted, and the corrected signal intensities were normalized to the positive control and presented as percentage.
# USP8 MIT domain [3] = assay: SPOT array of predicted peptides from known interactors, USP8 MIT domain; type: binding, human; conditions: for Percentage (%) normalized to highest intensity and corrected for background: SPOT array, GST-tagged MIT 100 µM, overnight 4 °C, chemiluminescence, highest intensity = DNAJB6; for Percentage (%): Supplementary Fig. 4B, normalized to the highest intensity and corrected for background
# Source text: To further assess the SLiM-based interactions of the USP8 MIT domain, we designed a peptide array tiling 24 potential binding sites in previously reported USP8 interactors. We used SLiMSearch to search for peptides that contain shorter or longer matches to the motif (Supplementary Table S4A). […] The DNAJB6_118 - 130 peptide was predicted as a binder based on a partial DFx{2,3}R motif. The DNAJB6-USP8 interaction is supported by previous GST-pulldown experiments and colocalization of the two proteins in male mouse germ cells, and the interaction is thought to be of importance to the protein quality control to yield functional spermatozoa. In the case of the CDH1_863 - 877 peptide it was predicted as USP8 MIT ligand based on the presence of an RFxxL motif. The previous support of the CDH1-USP8 interaction is based on proximity labelling mass spectrometry, and our results thus provide evidence for a binary interaction between the two proteins and define a binding site. To confirm that the motifs used to predict the interactions were of importance for binding we designed an alanine scanning peptide SPOT array analysis of the DNAJB6_118 - 130 and the CDH1_863 - 877 peptides. […] In summary, we find that the USP8 MIT domain binds to a MIM1-like motif that can be expressed by [[…]], as well as degenerate variants thereof. […] The membranes of predicted peptides were purchased by JPT Peptide Technologies (Berlin, Germany). The membranes were incubated with blocking buffer containing 5% skim milk in TBST (50 mM Tris, 150 mM NaCl pH 7.5, 0.05% Tween-20) for two hours at room temperature. The blocked membranes were incubated with GST-tagged proteins (100 μM for MIT domain and 150 μM for the Rhodanese domain) in blocking buffer overnight at 4 °C. After rinsed with TBST the membranes were incubated with HRP-conjugated anti-GST antibody (Cytiva, RPN1236; 1:3000 dilution) in blocking buffer for 1 h at 4 °C and subsequently rinsed with TBST to remove any excess antibody. The ECL reagent (Clarity Max Western ECL substrate, 1705062, BioRad) was used for chemiluminescence read-out with the ChemiDoc Imaging system (BioRad). The images were analysed with Fiji (ImageJ2 version 2.9.0). […] used to design the peptide arrays with known interactors predicted to contain the motifs. The background signal intensity was subtracted, and the corrected signal intensities were normalized to the positive control and presented as percentage.
# USP8 MIT domain [4] = assay: Proteomic peptide-phage display (ProP-PD) selection against USP8 MIT domain; type: binding, human; set-up: Confidence: scale not given here; conditions: for NGS counts (%): ProP-PD, human disorderome library, GST-tagged MIT bait, four rounds of selection, percent of NGS counts associated with each peptide, Fig. 1B; for max_counts: Total NGS counts; for Confidence: calculated based on four metrics: overlapping peptides, replicated peptides, motif match, peptide counts; for Counts: fraction of NGS counts for a selection; for Promiscuity: number of baits selections where the peptide has been observed, calculated on the domain level; for Replicates: number of screens against the bait protein in which the peptide has been found; for Specificity: proportion for the current bait of the total NGS read counts of the peptide for all baits screened with this library
# Procedure, shortened: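 GST-tagged USP8 MIT domain, immobilized on plates, used as bait for four rounds of phage selection with a human disorderome peptide library, after pre-clearing on GST at 4 °C. Binding 2 h at 4 °C, at least three replicates. Enriched peptides identified by next-generation sequencing.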
molecule,measurement,setting,value
CSCC[C@H](NC(=O)CN)C(=O)N[C@@H](CCC(=O)O)C(=O)N[C@@H](CCCNC(=N)N)C(=O)N[C@H](C(=O)N[C@@H](CC(C)C)C(=O)NCC(=O)NCC(=O)N[C@@H](CC(C)C)C(=O)N[C@@H](CO)C(=O)N[C@@H](CO)C(=O)N1CCC[C@H]1C(=O)N[C@@H](CC(C)C)C(=O)N[C@@H](CCCNC(=N)N)C(=O)N[C@@H](CC(C)C)C(=O)N[C@@H](CC(C)C)C(=O)O)C(C)C [KIAA1614_568 − 583],Kd,USP8 Rhod domain,10 ± 2 µM
CSCC[C@H](NC(=O)[C@H](CCCCN)NC(=O)[C@H](C)NC(=O)[C@H](CCC(=O)O)NC(=O)[C@H](Cc1c[nH]c2ccccc12)NC(=O)[C@H](CC(C)C)NC(=O)[C@H](C)NC(=O)[C@H](CC(C)C)NC(=O)CN)C(=O)N[C@@H](CCCCN)C(=O)N[C@@H](CCC(N)=O)C(=O)N[C@@H](CC(C)C)C(=O)N[C@@H](C)C(=O)N[C@@H](CCC(=O)O)C(=O)N[C@@H](CCCNC(=N)N)C(=O)N[C@@H](C)C(=O)O [TET3_1705 − 1720],Kd,USP8 Rhod domain,33 ± 9 µM
ELSQRLARLR [CHMP1B],binding to USP8 MIT,USP8 MIT domain [1],USP8 MIT binding peptides
"NEWGNRFKKLADMYG [CDH1_863 − 877, Cadherin-1 peptide]",residues important for binding by SPOT array alanine scanning,USP8 MIT domain [2],"corroborated the RFxxL motif and revealed a longer stretch is contributing to binding, with an upstream tryptophan being critical for the interaction"
same,Percentage (%) normalized to highest intensity and corrected for background,USP8 MIT domain [3],71%
same,Percentage (%),USP8 MIT domain [3],71%
"PEKPHDSLDSRIEMLL [SETD1B492 − 507, Histone-lysine N-methyltransferase SETD1B peptide]",NGS counts (%),USP8 MIT domain [4],1.37%
same,max_counts,USP8 MIT domain [4],70
same,Confidence,USP8 MIT domain [4],3
same,Counts,USP8 MIT domain [4],0.001866
same,Promiscuity,USP8 MIT domain [4],1
same,Replicates,USP8 MIT domain [4],3
same,Specificity,USP8 MIT domain [4],1
same,residues important for binding by SPOT array alanine scanning,USP8 MIT domain [2],confirmed the contributions of the motif residues in binding and the aspartic acid in position p2 of the motif
"PFEDFFGNRRGPR [DNAJB6_118 − 130, DnaJ homolog subfamily B member 6 peptide]",residues important for binding by SPOT array alanine scanning,USP8 MIT domain [2],"confirmed the importance of the aspartic acid and the phenylalanine of the predicted motif (DFx{2,3}R) and showed that the mutations of the flanking residues also reduced binding"
same,Percentage (%) normalized to highest intensity and corrected for background,USP8 MIT domain [3],100%
same,Percentage (%),USP8 MIT domain [3],100%
YVDLDAFLLEHGLPPS [DBP116 − 131],NGS counts (%),USP8 MIT domain [4],16.16%
same,max_counts,USP8 MIT domain [4],858
same,Confidence,USP8 MIT domain [4],2
same,Counts,USP8 MIT domain [4],0.06958
same,Promiscuity,USP8 MIT domain [4],3
same,Replicates,USP8 MIT domain [4],3
same,Specificity,USP8 MIT domain [4],0.9006
same,residues important for binding by SPOT array alanine scanning,USP8 MIT domain [2],revealed the importance of an extended DxDxFxxEHG stretch
same,Percentage (%) normalized to highest intensity and corrected for background,USP8 MIT domain [3],67%
same,Percentage (%),USP8 MIT domain [3],67%
